In ChEMBL document CHEMBL1255423, “Dinitroaniline activity in Toxoplasma gondii expressing wild-type or mutant alpha-tubulin” (Antimicrob Agents Chemother, 2010):
The source made the active and inactive calls. No cut-off for these calls is given here.

Key:
Assay type in all cases: functional, organism-based
Toxoplasma gondii [1] = test: Antimicrobial activity against Toxoplasma gondii RH infected in HFF cells by plaque assay
Toxoplasma gondii [2] = test: Antimicrobial activity against Toxoplasma gondii RH containing alpha1-tubulin V4L mutation infected in HFF cells by plaque assay
Toxoplasma gondii [3] = test: Antimicrobial activity against Toxoplasma gondii RH containing alpha1-tubulin S6I mutation infected in HFF cells by plaque assay
Toxoplasma gondii [4] = test: Antimicrobial activity against Toxoplasma gondii RH containing alpha1-tubulin F24H mutation infected in HFF cells by plaque assay
Toxoplasma gondii [5] = test: Antimicrobial activity against Toxoplasma gondii RH containing alpha1-tubulin H28Q mutation infected in HFF cells by plaque assay
Toxoplasma gondii [6] = test: Antimicrobial activity against Toxoplasma gondii RH containing alpha1-tubulin L136F mutation infected in HFF cells by plaque assay
Toxoplasma gondii [7] = test: Antimicrobial activity against Toxoplasma gondii RH containing alpha1-tubulin I235L mutation infected in HFF cells by plaque assay
Toxoplasma gondii [8] = test: Antimicrobial activity against Toxoplasma gondii RH containing alpha1-tubulin I235T mutation infected in HFF cells by plaque assay
Toxoplasma gondii [9] = test: Antimicrobial activity against Toxoplasma gondii RH containing alpha1-tubulin I235V mutation infected in HFF cells by plaque assay
Toxoplasma gondii [10] = test: Antimicrobial activity against Toxoplasma gondii RH containing alpha1-tubulin T239I mutation infected in HFF cells by plaque assay
Toxoplasma gondii [11] = test: Antimicrobial activity against Toxoplasma gondii RH containing alpha1-tubulin R243C mutation infected in HFF cells by plaque assay
Toxoplasma gondii [12] = test: Antimicrobial activity against Toxoplasma gondii RH containing alpha1-tubulin R243S mutation infected in HFF cells by plaque assay
Cryptosporidium parvum = test: Antimicrobial activity against Cryptosporidium parvum by short-term in vitro culture assay
Toxoplasma gondii [13] = test: Induction of parasite microtubule disruption Toxoplasma gondii RH infected in HFF cells by antitubulin antibody staining
Toxoplasma gondii [14] = test: Induction of parasite shape change Toxoplasma gondii RH infected in HFF cells at 0.25 uM by phase contrast microscopy

Row | SMILES | IC50 (Toxoplasma gondii [1]) [nM] | IC50 (Toxoplasma gondii [2]) [µM] | IC50 (Toxoplasma gondii [3]) [nM] | IC50 (Toxoplasma gondii [4]) [µM] | IC50 (Toxoplasma gondii [5]) [µM] | IC50 (Toxoplasma gondii [6]) [µM] | IC50 (Toxoplasma gondii [7]) [nM] | IC50 (Toxoplasma gondii [8]) [µM] | IC50 (Toxoplasma gondii [9]) [nM] | IC50 (Toxoplasma gondii [10]) [µM] | IC50 (Toxoplasma gondii [11]) [µM] | IC50 (Toxoplasma gondii [12]) [µM] | IC50 (Cryptosporidium parvum) [nM] | Activity (Toxoplasma gondii [13]) | Activity (Toxoplasma gondii [14])
1 | COP(=S)(NC(C)C)Oc1ccc(C)cc1[N+](=O)[O-] (centres undefined) [AMIPROPHOS METHYL] | 1000 | 2.1 | 3300 | 10 | 5.1 | 28.5 | 3900 | 7.1 | 1500 | 28.5 | 5.9 | 19.1 |  |  | 
2 | CCCCN(CC)c1c([N+](=O)[O-])cc(C(F)(F)F)cc1[N+](=O)[O-] [BENFLURALIN] | 1500 | 18.8 | 7400 | 15.7 | 15.2 | 27.7 | 4600 | 9.3 | 3700 | 22.9 | 12 | 21.7 |  |  | 
3 | CCC(CC)Nc1c([N+](=O)[O-])cc(C)c(C)c1[N+](=O)[O-] [PENDIMETHALIN] | 260 | 3.2 | 750 | 3.2 | 2.5 | 13.2 | 1000 | 0.71 | 340 | 12.2 | 1.1 | 9.7 | 190 |  | 
4 | CCCN(CC1CC1)c1c([N+](=O)[O-])cc(C(F)(F)F)cc1[N+](=O)[O-] [PROFLURALIN] | 610 | 8.2 | 2600 | 4.3 | 2.8 | 21.2 | 1500 | 3.9 | 1500 | 22.1 | 3.2 | 20.4 | 1900 |  | 
5 | CCCN(CCC)c1c([N+](=O)[O-])cc(S(C)(=O)=O)cc1[N+](=O)[O-] [NITRALIN] | 500 | 19.2 | 2100 | 3.7 | 1.8 | 31.3 | 2100 | 4.9 | 1600 | 30.3 | 4.3 | 23.9 | 4500 |  | 
6 | CCCN(CCC)c1c([N+](=O)[O-])cc(S(=O)(=O)Nc2ccccc2)cc1[N+](=O)[O-] | 6700 | 26.2 | 12400 | 17.2 | 12.4 | 9.7 | 7700 | 16.9 | 4700 | 17.1 | 17 | 13.3 |  |  | 
7 | CCN(CC)c1c([N+](=O)[O-])cc(C(F)(F)F)c(N)c1[N+](=O)[O-] [DINITRAMINE] | 45 | 3.4 | 420 | 0.37 | 0.51 | 12.5 | 320 | 0.32 | 89 | 26.6 | 0.33 | 18.4 |  | Active | Active
8 | CCC(C)Nc1c([N+](=O)[O-])cc(C(C)(C)C)cc1[N+](=O)[O-] (centres undefined) [BUTRALIN] | 1800 | 32.1 | 4500 | 24.2 | 10.2 | 32 | 9100 | 7.4 | 3800 | 28.7 | 12.8 | 25.1 |  |  | 
9 | C=C(C)CN(CC)c1c([N+](=O)[O-])cc(C(F)(F)F)cc1[N+](=O)[O-] [ETHALFLURALIN] | 260 | 13.5 | 2500 | 2.1 | 4.2 | 24 | 1400 | 1.7 | 650 | 28.7 | 1.6 | 19.5 |  |  | 
10 | CCCN(CCC)c1c([N+](=O)[O-])cc(S(N)(=O)=O)cc1[N+](=O)[O-] [ORYZALIN] | 250 | 14.7 | 1500 | 1.26 | 1.4 | 27.7 | 1600 | 5.5 | 2300 | 25.3 | 2.2 | 16 | 700 |  | 
11 | CCCN(CCC)c1c([N+](=O)[O-])cc(C(F)(F)F)cc1[N+](=O)[O-] [TRIFLURALIN] | 520 | 13.8 | 2800 | 4.2 | 5.3 | 27 | 1900 | 5.1 | 1800 | 23.4 | 4.1 | 23.3 | 1940 |  | 
12 | CCCN(CCC)c1c([N+](=O)[O-])cc(C(C)C)cc1[N+](=O)[O-] [ISOPROPALIN] | 880 | 7 | 2200 | 3.5 | 3.4 | 15 | 2200 | 4.3 | 2200 | 15 | 4 | 13.5 |  |  | 
13 | CCCN(CCCl)c1c([N+](=O)[O-])cc(C(F)(F)F)cc1[N+](=O)[O-] [FLUCHLORALIN] | 330 | 8 | 1900 | 3.2 | 1.6 | 22.2 | 1000 | 2.1 | 770 | 20.5 | 2.2 | 17.7 | 1810 |  | 
